Experimental data as given in article PMC11089506 (Journal of Medicinal Chemistry, 2024).
Structures can show the parent of a compound that is named as a salt. Where two headings read alike, the source gives them in different places.

Legend:
human 5-HT2CR [1] = target: T1, human 5-HT2CR (Homo sapiens, UniProt P28335); experiment: [125I]DOI competition binding assay
Description: (§1) Following incubation, the samples were filtered rapidly under vacuum through glass fiber filters (GF/B, Packard) presoaked with 0.3% polyethylenimine and rinsed several times with ice cold wash buffer (50 mM Tris-HCl, pH 7.4) using a 96-sample cell harvester (Unifilter, Packard). The filters were dried and then counted for radioactivity in a scintillation counter (Topcounter, Packard) using a scintillation cocktail (Microscint-0, Packard).

human 5-HT2BR = target: T2, human 5-HT2BR (Homo sapiens, UniProt P41595); experiment: [125I]DOI competition binding assay
T2 construct: host or cells: HEK293 (membrane homogenates)
Description: as §1

human 5-HT2CR [2] = target: T1, human 5-HT2CR; experiment: Ca2+/Fluo-4 assay, antagonist mode (5-HT EC90 as agonist), stable 5-HT2CR-HEK293 cells
human 5-HT2CR [3] = target: T1, human 5-HT2CR; experiment: Ca2+/Fluo-4 assay, agonist mode, stable 5-HT2CR-HEK293 cells; settings: for 5-HT2CR Rmax (%): % of the 5-HT Rmax; for 5-HT2CR Rmax ± S.E.M.: % of the 5-HT Rmax on the same 96-well plate
human 5-HT2AR = human 5-HT2AR (Homo sapiens, UniProt P28223); experiment: Ca2+/Fluo-4 assay, agonist mode, stable 5-HT2AR-HEK293 cells; settings: for 5-HT2AR Rmax (%): % of the 5-HT Rmax; for 5-HT2AR Rmax ± S.E.M.: % of the 5-HT Rmax on the same 96-well plate
MDR1 = experiment: MDR1-MDCK II permeability assay; assay type: in vitro ADME; settings: dog, MDCK-MDR1, pH 7.4, Table S6
MDR1-MDCKII = experiment: MDR1-MDCK II permeability assay; assay type: in vitro ADME; settings: Table S6
MDR1 (P-gp) = experiment: MDR1-MDCK II permeability assay; assay type: in vitro ADME; settings: dog, MDCK-MDR1, pH 7.4
[4] = test system: 5-HT2AR, 5-HT2BR, and 5-HT2CR; settings: cited from earlier work
[5] = 5-HT2CR pIC50 ± S.E.M., Table S2
[6] = 5-HT2CR EC50 (nM), Table 1, at least 3 independent experiments
[7] = read-out: 5-HT2AR EC50, Table 1, at least 3 independent experiments
[8] = 5-HT2CR EC50 (nM), Table 2, at least 3 independent experiments
[9] = read-out: 5-HT2CR EC50, Table 2, at least 3 independent experiments
[10] = read-out: 5-HT2AR EC50, Table 2, at least 3 independent experiments

Sequence of human 5-HT2AR (P28223 whole entry): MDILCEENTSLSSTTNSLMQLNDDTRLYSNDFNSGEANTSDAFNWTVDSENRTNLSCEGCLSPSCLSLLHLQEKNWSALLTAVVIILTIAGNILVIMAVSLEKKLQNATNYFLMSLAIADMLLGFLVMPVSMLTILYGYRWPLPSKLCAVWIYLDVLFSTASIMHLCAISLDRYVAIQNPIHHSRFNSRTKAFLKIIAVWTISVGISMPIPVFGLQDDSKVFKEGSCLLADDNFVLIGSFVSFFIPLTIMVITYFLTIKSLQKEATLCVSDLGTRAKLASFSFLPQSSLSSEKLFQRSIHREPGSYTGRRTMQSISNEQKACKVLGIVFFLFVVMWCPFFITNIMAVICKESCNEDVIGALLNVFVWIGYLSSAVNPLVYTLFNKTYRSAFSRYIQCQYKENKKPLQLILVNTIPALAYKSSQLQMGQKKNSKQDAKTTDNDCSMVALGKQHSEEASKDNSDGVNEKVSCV
T1 sequence (P28335 33-458): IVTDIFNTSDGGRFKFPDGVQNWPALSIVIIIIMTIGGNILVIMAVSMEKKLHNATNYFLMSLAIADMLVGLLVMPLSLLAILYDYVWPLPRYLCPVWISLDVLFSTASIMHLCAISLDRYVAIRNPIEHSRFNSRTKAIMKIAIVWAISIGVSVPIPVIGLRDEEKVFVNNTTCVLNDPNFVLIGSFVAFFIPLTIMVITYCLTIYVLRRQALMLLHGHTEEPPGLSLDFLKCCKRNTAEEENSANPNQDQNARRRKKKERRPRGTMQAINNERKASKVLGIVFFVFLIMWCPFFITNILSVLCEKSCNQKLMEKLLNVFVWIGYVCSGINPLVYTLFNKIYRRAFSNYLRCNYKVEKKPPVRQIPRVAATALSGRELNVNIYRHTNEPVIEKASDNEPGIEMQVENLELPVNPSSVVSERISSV
T2 sequence (P41595 whole entry): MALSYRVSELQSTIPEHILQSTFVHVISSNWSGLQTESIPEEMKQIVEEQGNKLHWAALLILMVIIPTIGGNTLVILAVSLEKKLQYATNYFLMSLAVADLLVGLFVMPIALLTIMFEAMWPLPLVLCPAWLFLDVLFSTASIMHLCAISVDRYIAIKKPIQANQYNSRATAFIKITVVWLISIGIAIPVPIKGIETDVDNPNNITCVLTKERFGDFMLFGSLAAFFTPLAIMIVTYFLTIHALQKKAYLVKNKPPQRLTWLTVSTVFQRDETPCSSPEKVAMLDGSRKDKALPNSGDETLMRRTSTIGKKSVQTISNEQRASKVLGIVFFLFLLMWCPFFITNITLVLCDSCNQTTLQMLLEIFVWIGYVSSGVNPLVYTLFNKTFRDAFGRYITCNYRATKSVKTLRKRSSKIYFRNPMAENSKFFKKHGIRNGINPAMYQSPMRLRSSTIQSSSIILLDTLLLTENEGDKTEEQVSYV

COc1cc(CC(C)N)c(OC)cc1I (racemic) [(±)-DOI, 1-(4-iodo-2,5-dimethoxyphenyl)propan-2-amine, reference compound]
Ki (human 5-HT2CR [1]): 0.51 nM
Ki (human 5-HT2BR): 1.23 nM

COc1cc(C2CCCNC2)c(OC)cc1Br (stereo not drawn) [Compound 6eu, 3-(4-Bromo-2,5-dimethoxyphenyl)piperidine]
IC50 (human 5-HT2CR [2]; 5-HT2CR IC50, Table 1): 640 nM
IC50 (human 5-HT2CR [2]; [5]): 631 nM
agonist activity at 5-HT2CR (in words) (human 5-HT2CR [3]): devoid of measurable agonist activity
EC50 (human 5-HT2CR [3]; [6]): > 50000 nM
EC50 (human 5-HT2AR; 5-HT2AR EC50 (nM), Table 1, at least 3 independent experiments): 69 nM

COc1cc(C2CCCNC2)c(OC)cc1Cl (stereo not drawn) [Compound 8eu, 3-(4-Chloro-2,5-dimethoxyphenyl)piperidine]
IC50 (human 5-HT2CR [2]; [5]): 871 nM
EC50 (human 5-HT2CR [3]; [6]): > 50000 nM
5-HT2AR pEC50 ± S.E.M. (human 5-HT2AR; Table S2): 7.18 ± 0.05
EC50 (human 5-HT2AR; [7]): 66 nM

COc1cc(C2CCCNC2)c(OC)cc1I (stereo not drawn) [Compound 9eu, 3-(4-Iodo-2,5-dimethoxyphenyl)piperidine]
IC50 (human 5-HT2CR [2]; [5]): 1100 nM
EC50 (human 5-HT2CR [3]; [6]): > 50000 nM
5-HT2AR pEC50 ± S.E.M. (human 5-HT2AR; Table S2): 7.43 ± 0.02
EC50 (human 5-HT2AR; [7]): 37 nM

COc1cc(C2CCCNC2)c(OC)cc1C#N (stereo not drawn) [Compound 10eu, 2,5-Dimethoxy-4-(piperidin-3-yl)benzonitrile]
IC50 (human 5-HT2CR [2]; [5]): ~15800 nM
EC50 (human 5-HT2CR [3]; [6]): > 50000 nM
5-HT2AR pEC50 ± S.E.M. (human 5-HT2AR; Table S2): 6.56 ± 0.13
EC50 (human 5-HT2AR; [7]): 270 nM

COc1cc(C(F)(F)F)c(OC)cc1CCN [Compound 18, 2-(2,5-Dimethoxy-4-(trifluoromethyl)phenyl)ethan-1-amine Hydrochloride, reference compound]
EC50 (human 5-HT2CR [3]; 5-HT2CR pEC50 ± S.E.M., Table S2): 7.59 nM
5-HT2CR Rmax (%) (human 5-HT2CR [3]; Table 2): 71%
5-HT2CR Rmax ± S.E.M. (human 5-HT2CR [3]; Table S2): 71 ± 2%
EC50 (human 5-HT2AR; 5-HT2AR pEC50 ± S.E.M., Table S2): 0.724 nM
fold higher agonist potency at 5-HT2AR than at 5-HT2CR (selectivity) (human 5-HT2AR; 5-HT2AR vs 5-HT2CR): 10 fold
5-HT2AR Rmax (%) (human 5-HT2AR; Table 2): 67%
5-HT2AR Rmax ± S.E.M. (human 5-HT2AR; Table S2): 67 ± 5%

Cl.FC(F)(F)c1ccc(C2CCCNC2)cc1 (stereo not drawn) [Compound 21, 3-(4-(Trifluoromethyl)phenyl)piperidine Hydrochloride]
agonist activity at 5-HT2CR (in words) (human 5-HT2CR [3]): negligible agonist activity
EC50 (human 5-HT2CR [3]; [8]): > 10000 nM
agonist activity at 5-HT2AR (in words) (human 5-HT2AR): negligible agonist activity
EC50 (human 5-HT2AR; 5-HT2AR EC50 (nM), Table 2, at least 3 independent experiments): > 10000 nM

COc1cc(C(F)(F)F)ccc1C1CCCNC1.Cl (stereo not drawn) [Compound 22dis, 3-(2-Methoxy-4-(trifluoromethyl)phenyl)piperidine Hydrochloride]
5-HT2CR pEC50 ± S.E.M. (human 5-HT2CR [3]; Table S2): 5.85 ± 0.05
EC50 (human 5-HT2CR [3]; [9]): 1400 nM
5-HT2AR Rmax (%) (human 5-HT2AR; Table 2): 80%
5-HT2AR pEC50 ± S.E.M. (human 5-HT2AR; Table S2): 6.18 ± 0.07
5-HT2AR Rmax ± S.E.M. (human 5-HT2AR; Table S2): 80 ± 5%
EC50 (human 5-HT2AR; [10]): 660 nM

COc1cc(C(F)(F)F)ccc1C1CCCNC1.Cl (stereo not drawn) [Compound 22eu, 3-(2-Methoxy-4-(trifluoromethyl)phenyl)piperidine Hydrochloride]
EC50 (human 5-HT2CR [3]; [8]): > 10000 nM
5-HT2AR Rmax (%) (human 5-HT2AR; Table 2): 68%
5-HT2AR pEC50 ± S.E.M. (human 5-HT2AR; Table S2): 7.16 ± 0.05
5-HT2AR Rmax ± S.E.M. (human 5-HT2AR; Table S2): 68 ± 2%
EC50 (human 5-HT2AR; [10]): 69 nM

COc1cc(C2CCCNC2)ccc1C(F)(F)F.Cl (stereo not drawn) [Compound 23dis, 3-(3-Methoxy-4-(trifluoromethyl)phenyl)piperidine Hydrochloride]
5-HT2CR Rmax (%) (human 5-HT2CR [3]; Table 2): 35%
5-HT2CR pEC50 ± S.E.M. (human 5-HT2CR [3]; Table S2): 5.85 ± 0.13
5-HT2CR Rmax ± S.E.M. (human 5-HT2CR [3]; Table S2): 35 ± 3%
EC50 (human 5-HT2CR [3]; [9]): 1400 nM
5-HT2AR Rmax (%) (human 5-HT2AR; Table 2): 65%
5-HT2AR pEC50 ± S.E.M. (human 5-HT2AR; Table S2): 5.61 ± 0.07
5-HT2AR Rmax ± S.E.M. (human 5-HT2AR; Table S2): 65 ± 3%
EC50 (human 5-HT2AR; [10]): 2500 nM

COc1cc(C2CCCNC2)ccc1C(F)(F)F.Cl (stereo not drawn) [Compound 23eu, 3-(3-Methoxy-4-(trifluoromethyl)phenyl)piperidine Hydrochloride]
EC50 (human 5-HT2CR [3]; [8]): > 10000 nM
5-HT2AR Rmax (%) (human 5-HT2AR; Table 2): 68%
5-HT2AR pEC50 ± S.E.M. (human 5-HT2AR; Table S2): 5.74 ± 0.09
5-HT2AR Rmax ± S.E.M. (human 5-HT2AR; Table S2): 68 ± 7%
EC50 (human 5-HT2AR; [10]): 1800 nM

CCOc1cc(C(F)(F)F)c(OC)cc1C1CCCNC1.Cl (stereo not drawn) [Compound 24dis, 3-(2-Ethoxy-5-methoxy-4-(trifluoromethyl)phenyl)piperidine Hydrochloride]
EC50 (human 5-HT2CR [3]; [8]): > 10000 nM
5-HT2CR pEC50 ± S.E.M. (human 5-HT2CR [3]; Table S2): 5.56 ± 0.02
EC50 (human 5-HT2CR [3]; read-out: 5-HT2CR EC50, Table S2): 2700 nM
5-HT2AR Rmax (%) (human 5-HT2AR; Table 2): 77%
5-HT2AR pEC50 ± S.E.M. (human 5-HT2AR; Table S2): 6.39 ± 0.08
5-HT2AR Rmax ± S.E.M. (human 5-HT2AR; Table S2): 77 ± 7%
EC50 (human 5-HT2AR; [10]): 410 nM

CCOc1cc(C(F)(F)F)c(OC)cc1C1CCCNC1.Cl (stereo not drawn) [Compound 24eu, 3-(2-Ethoxy-5-methoxy-4-(trifluoromethyl)phenyl)piperidine Hydrochloride]
EC50 (human 5-HT2CR [3]; 5-HT2CR EC50, Table S2): > 10000 nM
5-HT2AR Rmax (%) (human 5-HT2AR; Table 2): 40%
5-HT2AR pEC50 ± S.E.M. (human 5-HT2AR; Table S2): 7.42 ± 0.10
5-HT2AR Rmax ± S.E.M. (human 5-HT2AR; Table S2): 40 ± 3%
EC50 (human 5-HT2AR; [10]): 38 nM

CCOc1cc(C2CCCNC2)c(OC)cc1C(F)(F)F.Cl (stereo not drawn) [Compound 25dis, 3-(5-Ethoxy-2-methoxy-4-(trifluoromethyl)phenyl)piperidine Hydrochloride]
EC50 (human 5-HT2CR [3]; [8]): > 10000 nM
5-HT2AR Rmax (%) (human 5-HT2AR; Table 2): 86%
5-HT2AR pEC50 ± S.E.M. (human 5-HT2AR; Table S2): 6.50 ± 0.10
5-HT2AR Rmax ± S.E.M. (human 5-HT2AR; Table S2): 86 ± 6%
EC50 (human 5-HT2AR; [10]): 320 nM

CCOc1cc(C2CCCNC2)c(OC)cc1C(F)(F)F.Cl (stereo not drawn) [Compound 25eu, 3-(5-Ethoxy-2-methoxy-4-(trifluoromethyl)phenyl)piperidine Hydrochloride]
5-HT2CR pEC50 ± S.E.M. (human 5-HT2CR [3]; Table S2): 6.54 ± 0.04
EC50 (human 5-HT2CR [3]; [9]): 290 nM
5-HT2AR Rmax (%) (human 5-HT2AR; Table 2): 95%
5-HT2AR pEC50 ± S.E.M. (human 5-HT2AR; Table S2): 7.99 ± 0.11
5-HT2AR Rmax ± S.E.M. (human 5-HT2AR; Table S2): 95 ± 1%
EC50 (human 5-HT2AR; [10]): 10 nM

CCOc1cc(C(F)(F)F)c(OCC)cc1C1CCCNC1.Cl (stereo not drawn) [Compound 26dis, 3-(2,5-Diethoxy-4-(trifluoromethyl)phenyl)piperidine Hydrochloride]
EC50 (human 5-HT2CR [3]; [9]): > 10000 nM
5-HT2AR Rmax (%) (human 5-HT2AR; Table 2): 69%
5-HT2AR pEC50 ± S.E.M. (human 5-HT2AR; Table S2): 5.52 ± 0.06
5-HT2AR Rmax ± S.E.M. (human 5-HT2AR; Table S2): 69 ± 4%
EC50 (human 5-HT2AR; [10]): 3000 nM

CCOc1cc(C(F)(F)F)c(OCC)cc1C1CCCNC1.Cl (stereo not drawn) [Compound 26eu, 3-(2,5-Diethoxy-4-(trifluoromethyl)phenyl)piperidine Hydrochloride]
EC50 (human 5-HT2CR [3]; [8]): > 10000 nM
5-HT2AR Rmax (%) (human 5-HT2AR; Table 2): 47%
5-HT2AR pEC50 ± S.E.M. (human 5-HT2AR; Table S2): 6.99 ± 0.07
5-HT2AR Rmax ± S.E.M. (human 5-HT2AR; Table S2): 47 ± 6%
EC50 (human 5-HT2AR; [10]): 100 nM
fold drop in agonist potency (fold higher EC50) at 5-HT2AR (human 5-HT2AR; relative to (S)-11): 30 fold

C[C@H]1O[C@@H](O[C@H]2[C@@H](O)C[C@H](O[C@H]3[C@@H](O)C[C@H](O[C@H]4CC[C@@]5(C)[C@H](CC[C@@H]6[C@@H]5C[C@@H](O)[C@]5(C)[C@@H](C7=CC(=O)OC7)CC[C@]65O)C4)O[C@@H]3C)O[C@@H]2C)C[C@H](O)[C@@H]1O [Digoxin]
recovery at […] (MDR1; read-out: Mean Recovery B to A): 92%
Rank Papp (MDR1-MDCKII): Low
Papp A→B at […] (MDR1 (P-gp)): 0.22 ×10⁻⁶ cm/s
Papp B→A at […] (MDR1 (P-gp)): 12.4 ×10⁻⁶ cm/s

COCCc1ccc(OCC(O)CNC(C)C)cc1 (stereo not drawn) [Metoprolol]
recovery at […] (MDR1; read-out: Mean Recovery A to B): 97%
Rank Papp (MDR1-MDCKII): High
Papp A→B at […] (MDR1 (P-gp)): 24.2 ×10⁻⁶ cm/s

CC(C)(C)NCC(O)COc1cccc2c1CC(O)C(O)C2 (stereo not drawn) [Nadolol]
recovery at […] (MDR1; read-out: Mean Recovery A to B): 93%
Rank Papp (MDR1-MDCKII): Low
Papp A→B at […] (MDR1 (P-gp)): 0.54 ×10⁻⁶ cm/s

CN(C)CCc1c[nH]c2cccc(O)c12 [psilocin]
agonist profile at 5-HT2AR, 5-HT2BR, and 5-HT2CR (in words) [4]: equipotent and equiefficacious agonist
